Measurements published in patent US4223041A, “Urea derivatives to treat anxiety and aggressivity” (Labaz, priority 1976, dated 1980).

Experiments:
[1] = rota rod test (neurotoxicity); format: in vivo, mouse; conditions: for % of failures in rota rod test: mice, 30 min after administration
Experimental: The test used was that known as the rota rod test described by BOISSIER (Therapie 1958 XIII pp. 1074-1118).
This test aims at determining the ability of mice to coordinate their movements by seeing to what extent they can remain on a roller turning at a rate of 4 revolutions per minute for two minutes. The trial was carried out thirty minutes after administration by oral route of the compound to be studied and the percentage of failures was noted.
The value of this test is twofold. Failure on the part of the animals gives a very early indication of the slightest damage to the meuromuscular functions which cannot be discerned by any other means. Secondly, this test serves as an element of comparison for drawing up index figures involving the results obtained with other tests.

[2] = spontaneous motoricity in the mouse; format: in vivo
Description: This test is described in U.S. Pat. No. 3,929,869.

[3] = traction test (balance, muscular tonus and strength); conditions: mouse, in vivo; oral, mice, 60 minutes after administration; read-out: ED50 (dose which causes 50% failures in the traction test)
[4] = mouse, in vivo, po, 1000 mg/kg
Description: Finally, the hypnotic action of Compound A was studied in mice by means of the test of the posture reflex, the animals being kept under observation during the four hours following the oral administration of the product.

[5] = "Electrically-provoked combat" test (anxiolytic action); format: in vivo, mouse; conditions: mice
Description: Under certain conditions, a pair of mice reacts to an electric stimulus by a series of combats which are provoked by the anxiety felt by the animals as a result of the electric shock. This anxiety is expressed by a combat with the other animal which is rendered responsible. For this reason, the test described hereunder can be considered as a means of evaluating the anxiolytic action of a compound. Two mice which have been previously on a diet consisting only of water are placed together in a cage. They are then submitted to a series of electric impulses of an intensity varying between 40 and 80 volts according to the sensitivity of the animals. The test is first carried out with untreated animals as controls and then with the same animals treated 30 minutes before the test with a dose of the compound to be studied.
Note is taken on the number of combats engaged. The results are expressed in percentage of decrease in the number of combats engaged by the treated animals in comparison with the number of combats registered before treatment.

[6] = Four plates test (anxiolytic action); format: in vivo, mouse
Description: This test, which is specific to the anxiolytics, was undertaken with the mouse, thirty minutes after the oral administration of the compound to be studied.
It consists in placing mice in a box with fairly high walls, of which the bottom comprises four square plates. These plates, which all have the same dimensions, are separated from each other by a central axis and are alternately electrified by the positive and negative poles of a source of electric current. There is a space of a few millimeters between adjacent plates.
The mouse placed in this apparatus explores it and thus passes over the different plates in succession. Note is taken of the number of times each animal passes over the plates during one minute. When the current is switched on, the mouse passing over the plates receives an electric shock (80 V), which provokes a gradual decrease in the exploratory movements, and finally brings the animals to a complete stop.
Anxiolytic agents enable the animals to become more or less indifferent to the electric shock.
The percentage of protection against anxiety given by compounds of the invention was calculated by comparing the number of times the control animals passed over the plates when electrified with the number of times the treated animals passed over the electrified plates.

[7] = Aggressivity of the isolated mouse (antiaggressive activity); format: in vivo
Description: If a male mouse is isolated in a cage for three to four weeks, it will spontaneously attack any other animal of the same species which is placed in the same cage.
Mice wer isolated for the period of time required to render them spontaneously aggressive. Two mice, one rendered aggressive and one in a normal non-aggressive state, were then placed together and note was taken of the number of attacks by the aggressive mouse which occurred over a period of three minutes.
Each batch was composed of five pairs of animals.
The aggressive animals of each batch were then treated by oral route with the compound to be studied which was administered in such a way that the aggressive animals of each batch received a higher dose than those of the preceding batch.
Thirty minutes after administration, the couples were placed together again for a further three minutes and the number of attacks noted.

[8] = Action on the pentylenetetrazole-induced seizure (anticonvulsant activity); format: in vivo, mouse; conditions: Mus musculus, 3 h; 320 mg/kg oral, mice, 15 min before 125 mg/kg pentylenetetrazole; read-out: % of protection against death
Experimental: The purpose of this test which is carried out on mice is to determine whether the compounds of the invention, when given preventively by oral route, are capable at certain doses of protecting some of the animals against the epileptic seizure produced by a predetermined dose of pentylenetetrazole which would be 100% fatal in the absence of the compound.
The compound to be studied was administered fifteen minutes before an injection of 125 mg/kg of pentylenetetrazole and note was taken of the number of deaths occurring during the three hours following this injection. The results were expressed in percentage of protection of the animals against death at the dose studied.

[9] = Acute toxicity in rats; conditions: rat, in vivo
[10] = Action on the cardiovascular and respiratory system; format: in vivo, rat
[11] = Effects on α- and β-adrenergic effects provoked by epinephrine; format: in vivo, rat; conditions: 200 mg/kg i.p.
[12] = Potentiation of barbiturates, tranquillizers and ethanol; format: in vivo
Description: Additional pharmacological tests carried out with the preferred compound of the invention have shown that a non-sedative dose of this compound potentiates the hypnotic effect of the barbiturates as well as the sedative effect of tranquillizers such as meprobamate and diazepam.

[13] = Anxiolytic and antiaggressive properties and separation from sedation (general statements); conditions: in vivo
[14] = comparison at 25%-protection dose of four plates test, 175 mg/kg
[15] = 100 and 200 mg/kg i.p., anaesthetized rat

CCCC(CCC)(CCC)NC(N)=O [Compound A, 1-(1,1-Di-n-propyl-n-butyl)-urea]
% of failures in rota rod test ([1]; 175 mg/kg oral): 0%
% of failures in rota rod test ([1]; 600 mg/kg oral): 30%
sedative effect relative to reference products ([1]; at ED25 of four plates test): least sedative
failures in the rota rod test ([1]; at the dose which provokes a 60%-decrease in the number of combats): no failure
Rota rod (% of failures) [1, 14]: 0%
decrease in spontaneous motoricity ([2]; 175 mg/kg oral, mouse, 60 minutes, non-significant): 12%
Spontaneous motoricity (% of decrease) [2, 14]: 12%
decrease in spontaneous motoricity at dose giving 80% reduction in combats ([2]; dose producing 80% decrease in the number of combats): without any action on spontaneous motoricity
TD50 at 1 h [3]: 600 mg/kg
loss of the posture reflex [4]: no loss of the posture reflex
inhibition in vivo at 58 mg/kg ([5]; Mus musculus, 0.5 h, 58 mg/kg, 30 min before test, read-out: % of decrease in number of combats): 50%
decrease in number of combats obtainable without altering spontaneous motoricity ([5]; without action on spontaneous motoricity): 80%
inhibition in vivo at 175 mg/kg ([6]; 0.5 h, 175 mg/kg oral, mouse, 30 min after administration, read-out: % of protection against anxiety): 25%
positive result in four plates test without sedative effect ([6]; at ED25 of four plates test): without any sedative effect
sedative effects at antiaggressive dose ([7]; 100 mg/kg oral): entirely devoid of any sedative effects
ED50 ([7]; 0.5 h, oral, isolated mouse, 30 min after administration, read-out: ED50 (50% fewer attacks)): 142 mg/kg
minimal effective dose ([7]; 0.5 h, oral, isolated mouse, read-out: dose from which antiaggressive action is exerted): 100 mg/kg
responders at 320 mg/kg [8]: 50%
mortality at 192 h ([9]; 3000 mg/kg oral, 8-day observation, read-out: deaths): 10%
LD50 at 192 h ([9]; oral): > 3000 mg/kg
cardiac frequency [10, 15]: does not modify
respiratory frequency [10, 15]: does not modify
systemic arterial blood pressure [10, 15]: does not modify
action on the cardiovascular or respiratory system ([10]; rat, in vivo): no appreciable action
α-adrenergic effects provoked by epinephrine [11]: does not modify
β-adrenergic effects provoked by epinephrine [11]: does not modify
potentiation of the effects of ethanol ([12]; in vivo): slight potentiation
hypnotic effect of the barbiturates ([12]; non-sedative dose): potentiates
sedative effect of tranquillizers such as meprobamate and diazepam ([12]; non-sedative dose): potentiates
anxiolytic and antiaggressive activity (in words) [13]: most outstanding anxiolytic and antiaggressive properties
